Experimental data taken from patent US8598137B2, “Use of SAM68 for modulating signaling through the TNF receptor” (California Institute of Technology, priority 2010, dated 2013).

How the values were obtained:
[1] = tested on: NF-κB activation in Sam68 knockout fibroblast cells; assay: IL-1β induced NF-κB activation (IκBα degradation, p65 nuclear translocation); type: cell-based, mouse; details: 100 ng/ml IL-1 beta
Method: Wild type control and Sam68 knockout fibroblast cells were treated with TNF (Recombinant human TNFα from Peprotech), and IκBα degradation and nuclear translocation of NF-κB protein were used to monitor the activation of their NF-κB pathway (IκBα antibody was from Santa Cruz Biotechnology; assessment of NF-κB nuclear translocation, cytoplasmic and nuclear extracts were prepared as described by Schreiber et al., 1989).
The Sam68 knockout fibroblast cells were treated with IL-1β (R&D Systems), another proinflammatory cytokine. […] Thus, the NF-κB activation pathway is functional in these Sam68 knockout cells, while Sam68 activity is specifically related to TNF signaling.

[2] = tested on: Wildtype and Sam68 knockout cells; details: hydrogen peroxide 100 μM, 24 hours
Text: Cell death via the intrinsic pathway of apoptosis can be induced by genotoxic and oxidative stress (Roos and Kaina, 2006. Trends in molecular medicine 12, 440-450.) (Dumont et al., 1999. Oncogene 18, 747-757.).

Compound | NF-κB activation (IκBα degradation and nuclear translocation of p65) [1] | death induction, cell morphology [2]
IL-1β: proinflammatory cytokine, recombinant human IL-1 beta (R&D Systems) | remained intact | 
OO [hydrogen peroxide] |  | caused death induction in both wildtype and Sam68 knockout cells
